pIC50, pKi: −log10 of the molar value.
What was measured:
[1] = molecular target: P2Y purinoceptor 1 (Meleagris gallopavo) (UniProt P49652); experiment: Antagonist activity at Meleagris P2Y1R expressed in human 1321N1 cells assessed as inhibition of […] calcium mobilization at 100 uM by FLIPR assay relative to control; assay type: cell-based; set-up: scale not given: the % may be the effect or the level left
[2] = molecular target: P2Y purinoceptor 2 (Homo sapiens) (UniProt P41231); experiment: Antagonist activity at human P2Y2R expressed in human 1321N1 cells assessed as inhibition of […] calcium mobilization at 100 uM by FLIPR assay relative to control; assay type: cell-based; set-up: scale not given: the % may be the effect or the level left
Chain of P2Y purinoceptor 2 (Homo sapiens) (P41231 whole entry): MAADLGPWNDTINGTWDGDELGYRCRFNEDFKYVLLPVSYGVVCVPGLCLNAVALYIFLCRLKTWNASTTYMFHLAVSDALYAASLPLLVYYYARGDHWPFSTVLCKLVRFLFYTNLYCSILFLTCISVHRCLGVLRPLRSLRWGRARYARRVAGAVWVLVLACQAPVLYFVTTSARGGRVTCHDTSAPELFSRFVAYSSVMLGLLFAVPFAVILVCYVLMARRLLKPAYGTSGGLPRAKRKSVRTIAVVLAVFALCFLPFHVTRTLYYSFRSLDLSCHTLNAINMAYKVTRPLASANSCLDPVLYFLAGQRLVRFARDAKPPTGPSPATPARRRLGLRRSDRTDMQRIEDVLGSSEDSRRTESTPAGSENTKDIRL

[3] = molecular target: P2Y purinoceptor 4 (Homo sapiens) (UniProt P51582); experiment: Antagonist activity at human P2Y4R expressed in human 1321N1 cells assessed as inhibition of […] calcium mobilization at 100 uM by FLIPR assay relative to control; assay type: cell-based; set-up: scale not given: the % may be the effect or the level left
Chain of P2Y purinoceptor 4 (Homo sapiens) (P51582 whole entry): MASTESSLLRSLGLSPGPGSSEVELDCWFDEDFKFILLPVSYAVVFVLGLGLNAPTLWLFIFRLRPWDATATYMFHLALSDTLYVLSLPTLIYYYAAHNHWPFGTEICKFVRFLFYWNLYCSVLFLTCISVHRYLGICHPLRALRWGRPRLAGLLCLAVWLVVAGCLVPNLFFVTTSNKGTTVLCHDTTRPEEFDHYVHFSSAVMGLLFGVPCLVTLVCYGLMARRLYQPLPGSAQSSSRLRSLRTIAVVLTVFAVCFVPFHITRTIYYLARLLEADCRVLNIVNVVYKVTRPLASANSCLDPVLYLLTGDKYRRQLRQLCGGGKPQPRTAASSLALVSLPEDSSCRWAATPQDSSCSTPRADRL

HEK293 = experiment: Cytotoxicity against HEK293 cells assessed as reduction in cell viability at 100 uM measured after 24 hrs by MTT assay relative to control; assay type: toxicity, cell-based; settings: human, hek293, 24 h
P2Y purinoceptor 6 [4] = molecular target: P2Y purinoceptor 6 (Mus musculus, UniProt Q9ERK9); experiment: Antagonist activity at mouse P2Y6R expressed in human 1321N1 cells assessed as inhibition of […] calcium mobilization by FLIPR assay; assay type: cell-based
Chain of P2Y purinoceptor 6 (Mus musculus, UniProt Q9ERK9) (Q9ERK9 whole entry): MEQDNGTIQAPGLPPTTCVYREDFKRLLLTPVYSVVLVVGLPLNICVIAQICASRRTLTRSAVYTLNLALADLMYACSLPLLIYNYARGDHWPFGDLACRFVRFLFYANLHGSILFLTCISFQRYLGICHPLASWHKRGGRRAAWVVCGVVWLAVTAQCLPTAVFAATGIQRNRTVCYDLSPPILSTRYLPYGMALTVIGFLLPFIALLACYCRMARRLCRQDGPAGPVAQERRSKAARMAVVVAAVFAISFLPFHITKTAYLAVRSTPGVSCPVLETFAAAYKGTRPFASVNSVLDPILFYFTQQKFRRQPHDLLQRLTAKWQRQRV

[5] = molecular target: P2Y purinoceptor 6 (Mus musculus) (UniProt Q9ERK9); experiment: Antagonist activity at mouse P2Y6R expressed in human 1321N1 cells assessed as inhibition of […] calcium mobilization at 20 uM by FLIPR assay relative to control; assay type: cell-based; set-up: scale not given: the % may be the effect or the level left
Chain of P2Y purinoceptor 6 (Mus musculus) (Q9ERK9 whole entry): as above

P2Y purinoceptor 6 [6] = molecular target: T1, P2Y purinoceptor 6 (Homo sapiens, UniProt Q15077); experiment: Antagonist activity at human P2Y6R expressed in human 1321N1 cells assessed as inhibition of […] calcium mobilization by FLIPR assay; assay type: cell-based
T1 sequence (Q15077 whole entry): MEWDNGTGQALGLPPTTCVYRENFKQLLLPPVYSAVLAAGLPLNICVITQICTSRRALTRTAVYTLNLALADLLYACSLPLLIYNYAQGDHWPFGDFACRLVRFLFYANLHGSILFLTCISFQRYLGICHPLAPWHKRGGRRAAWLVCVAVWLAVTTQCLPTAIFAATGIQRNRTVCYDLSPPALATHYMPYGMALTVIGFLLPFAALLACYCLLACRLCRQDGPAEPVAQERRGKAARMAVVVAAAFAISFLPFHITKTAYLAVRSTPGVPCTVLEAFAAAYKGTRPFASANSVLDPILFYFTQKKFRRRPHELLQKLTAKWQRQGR

[7] = molecular target: T2, Alpha-2C adrenergic receptor (Homo sapiens, UniProt P18825); experiment: Binding affinity to adrenergic alpha 2c receptor (unknown origin)
T2 sequence (P18825 whole entry): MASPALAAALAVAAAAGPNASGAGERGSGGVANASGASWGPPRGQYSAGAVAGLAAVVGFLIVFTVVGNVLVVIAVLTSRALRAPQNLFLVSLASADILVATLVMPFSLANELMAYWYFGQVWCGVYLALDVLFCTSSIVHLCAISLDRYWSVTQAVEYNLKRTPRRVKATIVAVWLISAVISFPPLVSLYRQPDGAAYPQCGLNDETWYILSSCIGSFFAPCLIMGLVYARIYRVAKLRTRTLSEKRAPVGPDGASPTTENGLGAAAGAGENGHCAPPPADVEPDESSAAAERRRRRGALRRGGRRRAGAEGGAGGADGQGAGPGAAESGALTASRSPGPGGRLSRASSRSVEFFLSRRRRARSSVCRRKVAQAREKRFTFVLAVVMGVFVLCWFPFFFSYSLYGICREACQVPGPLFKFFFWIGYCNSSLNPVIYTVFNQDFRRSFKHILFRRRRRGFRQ

[8] = molecular target: Sigma non-opioid intracellular receptor 1 (Homo sapiens, UniProt Q99720); experiment: Binding affinity to sigma 1 receptor (unknown origin)
Chain of Sigma non-opioid intracellular receptor 1 (Q99720 whole entry): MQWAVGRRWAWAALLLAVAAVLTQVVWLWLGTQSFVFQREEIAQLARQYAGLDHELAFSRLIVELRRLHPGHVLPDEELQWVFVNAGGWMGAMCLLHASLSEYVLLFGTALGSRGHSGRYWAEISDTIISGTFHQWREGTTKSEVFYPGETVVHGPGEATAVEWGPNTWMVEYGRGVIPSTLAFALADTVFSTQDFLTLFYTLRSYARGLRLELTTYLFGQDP

Histamine H1 receptor = Histamine H1 receptor (Homo sapiens, UniProt P35367); experiment: Binding affinity to histamine H1 receptor (unknown origin)
Chain of Histamine H1 receptor (P35367 whole entry): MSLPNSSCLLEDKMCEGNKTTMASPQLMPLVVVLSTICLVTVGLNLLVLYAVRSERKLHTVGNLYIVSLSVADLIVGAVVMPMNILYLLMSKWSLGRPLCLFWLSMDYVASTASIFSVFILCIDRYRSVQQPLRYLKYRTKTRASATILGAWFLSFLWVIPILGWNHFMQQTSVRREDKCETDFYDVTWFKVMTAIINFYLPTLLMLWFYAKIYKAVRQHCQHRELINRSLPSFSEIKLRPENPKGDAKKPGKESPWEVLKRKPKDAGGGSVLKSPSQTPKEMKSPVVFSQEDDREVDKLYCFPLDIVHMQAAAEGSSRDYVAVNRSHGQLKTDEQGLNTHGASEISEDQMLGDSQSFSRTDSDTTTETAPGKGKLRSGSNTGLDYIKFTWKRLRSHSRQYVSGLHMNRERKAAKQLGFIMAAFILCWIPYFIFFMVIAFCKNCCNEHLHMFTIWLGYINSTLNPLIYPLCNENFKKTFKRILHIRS

[9] = molecular target: Beta-3 adrenergic receptor (Homo sapiens, UniProt P13945); experiment: Binding affinity to adrenergic beta 3 (unknown origin)
Chain of Beta-3 adrenergic receptor (P13945 whole entry): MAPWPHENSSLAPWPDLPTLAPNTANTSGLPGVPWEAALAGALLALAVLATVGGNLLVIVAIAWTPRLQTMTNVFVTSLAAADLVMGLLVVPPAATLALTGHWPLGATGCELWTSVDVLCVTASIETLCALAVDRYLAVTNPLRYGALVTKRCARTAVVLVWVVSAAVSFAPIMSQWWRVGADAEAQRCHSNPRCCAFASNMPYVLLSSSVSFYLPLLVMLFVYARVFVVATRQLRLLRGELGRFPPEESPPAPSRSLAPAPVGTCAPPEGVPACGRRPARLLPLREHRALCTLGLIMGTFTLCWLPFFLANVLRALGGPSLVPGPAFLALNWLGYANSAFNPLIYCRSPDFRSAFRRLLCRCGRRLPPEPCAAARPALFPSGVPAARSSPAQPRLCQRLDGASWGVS

[10] = molecular target: 5-hydroxytryptamine receptor 2A (Homo sapiens, UniProt P28223); experiment: Binding affinity to 5-HT2A (unknown origin)
Chain of 5-hydroxytryptamine receptor 2A (P28223 whole entry): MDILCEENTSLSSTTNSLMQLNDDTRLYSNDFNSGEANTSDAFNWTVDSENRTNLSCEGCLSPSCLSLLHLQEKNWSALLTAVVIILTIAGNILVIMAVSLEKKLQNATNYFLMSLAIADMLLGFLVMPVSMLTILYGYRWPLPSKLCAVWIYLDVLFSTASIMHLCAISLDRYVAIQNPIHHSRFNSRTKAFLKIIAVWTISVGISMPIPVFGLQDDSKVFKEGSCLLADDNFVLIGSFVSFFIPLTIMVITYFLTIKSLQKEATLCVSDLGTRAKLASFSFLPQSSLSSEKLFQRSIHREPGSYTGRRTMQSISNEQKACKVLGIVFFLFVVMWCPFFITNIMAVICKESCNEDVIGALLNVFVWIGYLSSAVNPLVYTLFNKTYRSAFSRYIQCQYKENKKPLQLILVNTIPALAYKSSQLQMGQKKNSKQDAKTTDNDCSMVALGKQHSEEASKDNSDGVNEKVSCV

D(3) dopamine receptor = D(3) dopamine receptor (Homo sapiens, UniProt P35462); experiment: Binding affinity to dopamine 3 receptor (unknown origin)
Chain of D(3) dopamine receptor (P35462 whole entry): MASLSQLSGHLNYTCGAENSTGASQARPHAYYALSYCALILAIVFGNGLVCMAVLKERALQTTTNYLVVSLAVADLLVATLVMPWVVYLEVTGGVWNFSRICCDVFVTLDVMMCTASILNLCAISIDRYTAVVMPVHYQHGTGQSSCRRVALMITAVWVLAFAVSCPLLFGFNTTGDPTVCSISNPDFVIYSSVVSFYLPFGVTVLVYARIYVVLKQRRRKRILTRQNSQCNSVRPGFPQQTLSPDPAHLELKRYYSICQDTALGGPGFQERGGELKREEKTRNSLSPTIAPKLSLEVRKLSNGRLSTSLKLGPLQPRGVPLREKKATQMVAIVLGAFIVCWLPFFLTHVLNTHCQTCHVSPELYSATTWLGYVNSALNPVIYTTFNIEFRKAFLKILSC

D(1B) dopamine receptor = D(1B) dopamine receptor (Homo sapiens, UniProt P21918); experiment: Binding affinity to dopamine 5 receptor (unknown origin)
Chain of D(1B) dopamine receptor (P21918 whole entry): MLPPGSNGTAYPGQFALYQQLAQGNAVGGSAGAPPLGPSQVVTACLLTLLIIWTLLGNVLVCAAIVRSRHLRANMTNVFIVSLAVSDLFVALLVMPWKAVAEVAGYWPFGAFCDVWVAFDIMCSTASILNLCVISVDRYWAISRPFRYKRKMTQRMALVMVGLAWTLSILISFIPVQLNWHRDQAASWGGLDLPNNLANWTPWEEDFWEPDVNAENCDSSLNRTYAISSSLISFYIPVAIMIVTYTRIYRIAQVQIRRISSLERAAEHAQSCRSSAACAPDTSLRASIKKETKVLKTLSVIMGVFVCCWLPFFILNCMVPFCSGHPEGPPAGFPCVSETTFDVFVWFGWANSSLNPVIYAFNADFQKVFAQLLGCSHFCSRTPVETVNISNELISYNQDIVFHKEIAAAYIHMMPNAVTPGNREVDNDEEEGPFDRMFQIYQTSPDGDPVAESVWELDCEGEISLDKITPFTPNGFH

[11] = molecular target: Sigma intracellular receptor 2 (Homo sapiens, UniProt Q5BJF2); experiment: Binding affinity to sigma 2 receptor (unknown origin)
Chain of Sigma intracellular receptor 2 (Q5BJF2 whole entry): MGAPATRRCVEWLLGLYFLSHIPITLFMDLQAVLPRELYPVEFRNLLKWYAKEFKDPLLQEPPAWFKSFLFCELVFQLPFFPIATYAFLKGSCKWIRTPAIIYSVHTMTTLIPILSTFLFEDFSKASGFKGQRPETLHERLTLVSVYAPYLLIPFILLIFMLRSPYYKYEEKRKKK

P2Y purinoceptor 6 [12] = molecular target: T1, P2Y purinoceptor 6; experiment: Antagonist activity at human P2Y6R expressed in human 1321N1 cells assessed as inhibition of […] calcium mobilization at 100 uM by FLIPR assay relative to control; assay type: cell-based; set-up: scale not given: the % may be the effect or the level left

Chain of P2Y purinoceptor 1 (Meleagris gallopavo) (P49652 whole entry): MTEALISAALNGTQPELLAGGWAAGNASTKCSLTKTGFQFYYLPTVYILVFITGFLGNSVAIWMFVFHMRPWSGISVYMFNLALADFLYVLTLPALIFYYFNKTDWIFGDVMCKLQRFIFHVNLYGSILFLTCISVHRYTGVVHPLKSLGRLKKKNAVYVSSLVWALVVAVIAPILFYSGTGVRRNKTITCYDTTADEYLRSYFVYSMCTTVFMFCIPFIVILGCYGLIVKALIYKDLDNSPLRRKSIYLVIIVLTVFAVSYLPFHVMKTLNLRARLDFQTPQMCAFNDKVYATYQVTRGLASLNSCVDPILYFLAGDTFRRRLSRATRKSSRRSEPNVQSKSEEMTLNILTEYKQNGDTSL

SMILES: C[Si](C)(C)C#Cc1ccc2c(c1)C=C([N+](=O)[O-])C(C(F)(F)F)O2 (racemic)
- Activity [1]: < 30%
- Activity [2]: < 30%
- Activity [3]: < 30%
- Activity (HEK293): 58%

SMILES: O=[N+]([O-])C1=Cc2cc(Br)ccc2OC1C(F)(F)F (racemic)
- pIC50 (P2Y purinoceptor 6 [4]): 4.69

SMILES: O=C(O)c1ccc(C#Cc2ccc3c(c2)C=C([N+](=O)[O-])C(C(F)(F)F)O3)cc1 (racemic)
- Activity [1]: < 30%
- Activity [2]: < 30%
- Activity [3]: < 30%
- Activity [5]: 14%
- Activity (HEK293): 95%

SMILES: O=[N+]([O-])C1=Cc2cc(I)ccc2OC1C(F)(F)F (racemic)
- pIC50 (P2Y purinoceptor 6 [4]): 4.54

SMILES: O=[N+]([O-])C1=Cc2ccccc2OC1C(F)(F)F (racemic)
- pIC50 (P2Y purinoceptor 6 [4]): 3.73

SMILES: CC[Si](C#Cc1ccc2c(c1)C=C([N+](=O)[O-])C(C(F)(F)F)O2)(CC)CC (racemic)
- Activity [1]: < 30%
- Activity [2]: < 30%
- Activity [3]: < 30%
- pIC50 (P2Y purinoceptor 6 [4]): 5.31
- Activity (HEK293): 73%

SMILES: CC[Si](C#Cc1cccc2c1OC(C(F)(F)F)C([N+](=O)[O-])=C2)(CC)CC (racemic)
- pIC50 (P2Y purinoceptor 6 [6]): 6.34
- Activity [1]: 39.2%
- Activity [2]: < 30%
- Activity [3]: < 30%
- pIC50 (P2Y purinoceptor 6 [4]): 5.21
- pKi [7]: 5.96
- pKi [8]: 5.19
- pKi (Histamine H1 receptor): 5.46
- pKi [9]: 5.14
- pKi [10]: 5.38
- Activity (HEK293): 83%

SMILES: O=[N+]([O-])C1=Cc2cccc(Cl)c2OC1C(F)(F)F (racemic)
- pIC50 (P2Y purinoceptor 6 [6]): 5.43
- pIC50 (P2Y purinoceptor 6 [4]): 4.82

SMILES: CC[Si](C#Cc1cccc2c1C=C([N+](=O)[O-])C(C(F)(F)F)O2)(CC)CC (racemic)
- pIC50 (P2Y purinoceptor 6 [6]): 5.32

SMILES: O=[N+]([O-])C1=Cc2cc(C#Cc3ccc(Cl)cc3)ccc2OC1C(F)(F)F (racemic)
- pIC50 (P2Y purinoceptor 6 [6]): 5.27

SMILES: O=[N+]([O-])C1=Cc2cc(Cl)ccc2OC1C(F)(F)F (racemic)
- pIC50 (P2Y purinoceptor 6 [4]): 4.51
- pKi (D(3) dopamine receptor): 6.11
- pKi (D(1B) dopamine receptor): 5.55

SMILES: O=[N+]([O-])C1=Cc2cc(F)cc(F)c2OC1C(F)(F)F (racemic)
- pIC50 (P2Y purinoceptor 6 [6]): 5.52
- pIC50 (P2Y purinoceptor 6 [4]): 4.75

SMILES: O=[N+]([O-])C1=Cc2c(Cl)cccc2OC1C(F)(F)F (racemic)
- pIC50 (P2Y purinoceptor 6 [6]): 4.80

SMILES: O=[N+]([O-])C1=Cc2cccc(I)c2OC1C(F)(F)F (racemic)
- pIC50 (P2Y purinoceptor 6 [4]): 4.75

SMILES: O=[N+]([O-])C1=Cc2c(I)cccc2OC1C(F)(F)F (racemic)
- pIC50 (P2Y purinoceptor 6 [6]): 4.88

SMILES: O=[N+]([O-])C1=Cc2cc(C#Cc3ccc(CO)cc3)ccc2OC1C(F)(F)F (racemic)
- pIC50 (P2Y purinoceptor 6 [4]): 4.50
- pKi (D(1B) dopamine receptor): 6.22

SMILES: O=[N+]([O-])C1=Cc2cc(C#Cc3ccc(F)cc3)ccc2OC1C(F)(F)F (racemic)
- pIC50 (P2Y purinoceptor 6 [6]): 5.05

SMILES: CC1Oc2ccc(I)cc2C=C1[N+](=O)[O-] (racemic)
- pIC50 (P2Y purinoceptor 6 [6]): 4.43

SMILES: O=[N+]([O-])C1=Cc2cc(F)cc(Br)c2OC1C(F)(F)F (racemic)
- pIC50 (P2Y purinoceptor 6 [4]): 4.84

SMILES: O=[N+]([O-])C1=Cc2cc(F)ccc2OC1C(F)(F)F (racemic)
- pKi [11]: 5.07

SMILES: O=[N+]([O-])C1=Cc2cc(I)ccc2OC1C1CCC1 (racemic)
- pIC50 (P2Y purinoceptor 6 [6]): 4.48

SMILES: O=[N+]([O-])C1=Cc2ccc(Cl)cc2OC1C(F)(F)F (racemic)
- pIC50 (P2Y purinoceptor 6 [6]): 5.10

SMILES: CC[Si](C#Cc1ccc2c(c1)C=C([N+](=O)[O-])C(C1CC1)O2)(CC)CC (racemic)
- Activity (P2Y purinoceptor 6 [12]; filed as antagonist): 50%

SMILES: FC(F)(F)C1Oc2ccc(Cl)cc2-c2n[nH]nc21 (racemic)
- Activity (P2Y purinoceptor 6 [12]; filed as antagonist): 43%

SMILES: NC1Cc2ccccc2OC1C(F)(F)F (racemic)
- Activity (P2Y purinoceptor 6 [12]): 0%

Reference: ChEMBL document CHEMBL5223123, “Synthesis and pharmacological characterization of multiply substituted 2H-chromene derivatives as P2Y6 receptor antagonists” (Bioorg Med Chem Lett, 2022)
